Reference: patent publication US20090175882A1, “METHODS AND COMPOSITIONS FOR TREATING HYPERALGESIA” (IRM LLC, priority 2006, published 2009)
Entries after “also recorded” stand apart in the source; their conditions may differ.

How the values were obtained:
mouse TRPA1 = biological target: T1, mouse TRPA1 (Mus musculus, UniProt Q8BLA8); assay: FLIPR calcium-influx assay, block of cinnamaldehyde activation, CHO cells; format: cell-based; conditions: elicited by 50 μM cinnamaldehyde, CHO cells
T1 construct: expressed in transfected cells; host or cells: CHO cells (tetracycline-induced for PatchXpress; mTRPA1-pcDNA5 named for the transient labelling experiment)

TRPV1 = biological target: T2, TRPV1 (Rattus norvegicus, UniProt O35433); assay: ThermoTRP selectivity test; format: cell-based; conditions: at 50 μM (data not shown)
T2 construct: expressed in transfected cells; not restated for the selectivity test

TRPV3 = biological target: T3, TRPV3 (Mus musculus, UniProt Q8K424); assay: ThermoTRP selectivity test; format: cell-based; conditions: at 50 μM (data not shown)
T3 construct: expressed in transfected cells; not restated for the selectivity test
T3 sequence (Q8K424 1-791): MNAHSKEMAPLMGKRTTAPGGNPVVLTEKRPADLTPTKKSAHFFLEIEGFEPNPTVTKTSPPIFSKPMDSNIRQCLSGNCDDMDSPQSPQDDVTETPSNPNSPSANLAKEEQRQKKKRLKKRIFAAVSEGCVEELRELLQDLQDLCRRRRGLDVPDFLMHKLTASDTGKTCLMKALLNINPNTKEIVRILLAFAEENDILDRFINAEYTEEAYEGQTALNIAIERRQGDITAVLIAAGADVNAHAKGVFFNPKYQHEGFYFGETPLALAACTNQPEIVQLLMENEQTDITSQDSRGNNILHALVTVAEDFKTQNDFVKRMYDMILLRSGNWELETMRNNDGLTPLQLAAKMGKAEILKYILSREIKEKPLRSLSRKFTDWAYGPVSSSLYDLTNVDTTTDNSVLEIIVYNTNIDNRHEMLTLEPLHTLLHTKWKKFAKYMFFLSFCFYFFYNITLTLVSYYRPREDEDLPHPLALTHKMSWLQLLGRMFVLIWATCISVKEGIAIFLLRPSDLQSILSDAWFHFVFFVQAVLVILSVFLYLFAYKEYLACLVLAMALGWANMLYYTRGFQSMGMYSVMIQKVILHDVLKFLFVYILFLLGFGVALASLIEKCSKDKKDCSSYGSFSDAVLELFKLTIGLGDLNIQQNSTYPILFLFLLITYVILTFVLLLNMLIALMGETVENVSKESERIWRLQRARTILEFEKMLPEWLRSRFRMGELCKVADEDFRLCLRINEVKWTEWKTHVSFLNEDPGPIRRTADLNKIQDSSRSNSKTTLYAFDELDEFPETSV

TRPV4 = biological target: T4, TRPV4 (Rattus norvegicus, UniProt Q9ERZ8); assay: ThermoTRP selectivity test; format: cell-based; conditions: at 50 μM (data not shown)
T4 construct: expressed in transfected cells; not restated for the selectivity test

TRPM8 = biological target: T5, TRPM8 (Mus musculus, UniProt Q8R4D5); assay: ThermoTRP selectivity test; format: cell-based; conditions: at 50 μM (data not shown)
T5 construct: expressed in transfected cells; not restated for the selectivity test

[1] = system: cinnamaldehyde-induced nociceptive events; assay: Acute nociceptive behaviour after hindpaw injection of cinnamaldehyde; format: in vivo, mice; conditions: cinnamaldehyde 16.4 mM coinjected with compound 18 1 mM
[2] = Behavioral response to the compound alone in hindpaw; format: in vivo; conditions: 1-10 mM in hindpaw of mice (data not shown)
[3] = system: acute heat or pressure to the paw; assay: Nociceptive responses to acute heat or pressure to the paw; format: in vivo; conditions: data not shown
[4] = system: CFA-induced mechanical hyperalgesia; assay: CFA-induced mechanical hyperalgesia (Von Frey threshold); format: in vivo; conditions: injected into hindpaw 24 hours after CFA, mice
[5] = system: BK-induced nociceptive mechanical behaviours; assay: Bradykinin-induced mechanical hyperalgesia (Von Frey threshold); format: in vivo; conditions: short term hyperalgesia model, 1 mM coinjected, mice
[6] = system: CFA-induced heat hyperalgesia; assay: CFA-induced heat hyperalgesia; format: in vivo; conditions: mice
[7] = system: bradykinin (BK)-induced heat hyperalgesia; assay: Bradykinin-induced heat hyperalgesia; format: in vivo; conditions: mice
[8] = system: CFA-induced cold hyperalgesia; assay: CFA-induced cold hyperalgesia on a 5° C. plate; format: in vivo; conditions: rats
[9] = system: TRPV1, TRPV2, TRPV3, TRPV4, or TRPM8; assay: Effect on other thermoTRPs (summary statement); format: cell-based
Source text: TRPA1 inhibitors that can be employed in the practice of the present invention include compounds that interferes with the expression, modification, regulation or activation of TRPA1, or compounds that down-regulates one or more of the normal biological activities of TRPA1 (e.g., its ion channel). […] Various TRPA1-specific antagonists can be used in the instant invention. Some of these TRPA1-specific inhibitors are identified by the present inventors, as described in the Examples below. These compounds can be obtained commercially or are otherwise described in the art. One such compound is Compound 18, (Z)-4-(4-chlorophynyl)-3-methylbut-3-en-2-oxime. This compound can be obtained commercially from Maybridge (Cornwall, UK). Another example is Compound 40, N,N′-Bis-(2-hydroxybenzyl)-2,5-diamino-2,5-dimethylhexane, which has been described in U.S. Pat. No. 4,129,556. […] Thus, these two compounds can be readily used to treat or alleviate mechanical hyperalgesia as described in more detail below.

TRPA1 [10] = biological target: T6, TRPA1 (Homo sapiens, UniProt O75762); assay: TRPA1 block, test not specified; conditions: summary statement
TRPA1 [11] = biological target: T6, TRPA1; assay: FLIPR calcium-influx assay, block of cinnamaldehyde activation, CHO cells; format: cell-based; set-up: expressed in transfected cells; conditions: elicited by 50 μM cinnamaldehyde
Target sequence in this assay (O75762 whole entry): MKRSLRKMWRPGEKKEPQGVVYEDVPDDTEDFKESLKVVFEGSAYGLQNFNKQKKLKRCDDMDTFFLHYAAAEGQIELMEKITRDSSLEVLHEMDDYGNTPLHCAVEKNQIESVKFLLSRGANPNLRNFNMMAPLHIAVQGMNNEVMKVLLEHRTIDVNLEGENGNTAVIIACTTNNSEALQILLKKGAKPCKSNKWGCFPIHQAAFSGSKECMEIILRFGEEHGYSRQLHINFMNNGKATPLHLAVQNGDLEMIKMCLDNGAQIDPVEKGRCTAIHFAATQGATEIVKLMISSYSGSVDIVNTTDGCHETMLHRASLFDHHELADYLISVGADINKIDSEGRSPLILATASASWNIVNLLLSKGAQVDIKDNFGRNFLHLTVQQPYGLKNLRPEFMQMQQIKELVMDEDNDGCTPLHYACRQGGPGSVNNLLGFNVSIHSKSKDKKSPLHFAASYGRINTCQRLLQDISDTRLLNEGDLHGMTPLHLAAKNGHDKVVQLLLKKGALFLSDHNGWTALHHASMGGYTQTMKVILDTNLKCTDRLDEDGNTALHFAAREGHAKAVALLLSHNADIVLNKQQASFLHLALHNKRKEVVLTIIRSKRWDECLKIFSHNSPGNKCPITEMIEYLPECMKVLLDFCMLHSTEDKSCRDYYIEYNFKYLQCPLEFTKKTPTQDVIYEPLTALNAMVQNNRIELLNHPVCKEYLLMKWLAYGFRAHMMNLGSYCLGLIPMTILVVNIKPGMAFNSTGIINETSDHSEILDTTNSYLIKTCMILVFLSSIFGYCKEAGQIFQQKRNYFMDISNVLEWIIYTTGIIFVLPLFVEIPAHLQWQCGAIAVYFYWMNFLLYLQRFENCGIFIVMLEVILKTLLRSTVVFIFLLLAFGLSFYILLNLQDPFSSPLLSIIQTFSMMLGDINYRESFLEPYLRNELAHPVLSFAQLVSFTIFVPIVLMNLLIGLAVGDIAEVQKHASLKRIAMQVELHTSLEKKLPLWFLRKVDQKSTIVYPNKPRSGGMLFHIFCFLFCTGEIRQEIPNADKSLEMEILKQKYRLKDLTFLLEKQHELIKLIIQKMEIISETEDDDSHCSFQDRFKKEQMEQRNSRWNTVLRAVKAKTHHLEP

TRPA1 [12] = biological target: T6, TRPA1; assay: Cinnamaldehyde-induced currents in inside-out excised patches of Xenopus oocytes; format: cell-based; set-up: expressed in transfected cells; host or cells: Xenopus oocytes injected with cRNA (pOX vector); conditions: coapplication with cinnamaldehyde, inside-out macropatches
Target sequence in this assay (O75762 whole entry): as above

T2 sequence (O35433 whole entry): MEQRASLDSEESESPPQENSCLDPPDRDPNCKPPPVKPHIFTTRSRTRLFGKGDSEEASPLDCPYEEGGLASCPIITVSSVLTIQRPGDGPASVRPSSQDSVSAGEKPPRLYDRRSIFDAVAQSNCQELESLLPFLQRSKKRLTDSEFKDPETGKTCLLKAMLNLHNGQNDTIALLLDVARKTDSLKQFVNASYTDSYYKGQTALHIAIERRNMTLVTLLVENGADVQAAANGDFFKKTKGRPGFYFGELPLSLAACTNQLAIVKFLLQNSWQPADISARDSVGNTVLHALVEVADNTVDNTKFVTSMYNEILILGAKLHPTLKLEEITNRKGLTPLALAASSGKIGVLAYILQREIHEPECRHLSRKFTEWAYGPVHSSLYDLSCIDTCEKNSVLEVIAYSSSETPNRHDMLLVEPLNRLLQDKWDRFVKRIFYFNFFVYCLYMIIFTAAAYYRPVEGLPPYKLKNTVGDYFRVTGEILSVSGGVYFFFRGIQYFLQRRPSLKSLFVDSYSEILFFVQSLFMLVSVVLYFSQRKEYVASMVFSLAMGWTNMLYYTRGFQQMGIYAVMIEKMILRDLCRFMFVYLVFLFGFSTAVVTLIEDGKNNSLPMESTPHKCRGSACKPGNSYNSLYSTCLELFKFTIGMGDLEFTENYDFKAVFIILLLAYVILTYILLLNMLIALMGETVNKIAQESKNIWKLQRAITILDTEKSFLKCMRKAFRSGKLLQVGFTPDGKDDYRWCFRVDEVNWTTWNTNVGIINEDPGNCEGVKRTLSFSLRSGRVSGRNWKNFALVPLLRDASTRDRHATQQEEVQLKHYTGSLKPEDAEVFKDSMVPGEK
T5 sequence (Q8R4D5 whole entry): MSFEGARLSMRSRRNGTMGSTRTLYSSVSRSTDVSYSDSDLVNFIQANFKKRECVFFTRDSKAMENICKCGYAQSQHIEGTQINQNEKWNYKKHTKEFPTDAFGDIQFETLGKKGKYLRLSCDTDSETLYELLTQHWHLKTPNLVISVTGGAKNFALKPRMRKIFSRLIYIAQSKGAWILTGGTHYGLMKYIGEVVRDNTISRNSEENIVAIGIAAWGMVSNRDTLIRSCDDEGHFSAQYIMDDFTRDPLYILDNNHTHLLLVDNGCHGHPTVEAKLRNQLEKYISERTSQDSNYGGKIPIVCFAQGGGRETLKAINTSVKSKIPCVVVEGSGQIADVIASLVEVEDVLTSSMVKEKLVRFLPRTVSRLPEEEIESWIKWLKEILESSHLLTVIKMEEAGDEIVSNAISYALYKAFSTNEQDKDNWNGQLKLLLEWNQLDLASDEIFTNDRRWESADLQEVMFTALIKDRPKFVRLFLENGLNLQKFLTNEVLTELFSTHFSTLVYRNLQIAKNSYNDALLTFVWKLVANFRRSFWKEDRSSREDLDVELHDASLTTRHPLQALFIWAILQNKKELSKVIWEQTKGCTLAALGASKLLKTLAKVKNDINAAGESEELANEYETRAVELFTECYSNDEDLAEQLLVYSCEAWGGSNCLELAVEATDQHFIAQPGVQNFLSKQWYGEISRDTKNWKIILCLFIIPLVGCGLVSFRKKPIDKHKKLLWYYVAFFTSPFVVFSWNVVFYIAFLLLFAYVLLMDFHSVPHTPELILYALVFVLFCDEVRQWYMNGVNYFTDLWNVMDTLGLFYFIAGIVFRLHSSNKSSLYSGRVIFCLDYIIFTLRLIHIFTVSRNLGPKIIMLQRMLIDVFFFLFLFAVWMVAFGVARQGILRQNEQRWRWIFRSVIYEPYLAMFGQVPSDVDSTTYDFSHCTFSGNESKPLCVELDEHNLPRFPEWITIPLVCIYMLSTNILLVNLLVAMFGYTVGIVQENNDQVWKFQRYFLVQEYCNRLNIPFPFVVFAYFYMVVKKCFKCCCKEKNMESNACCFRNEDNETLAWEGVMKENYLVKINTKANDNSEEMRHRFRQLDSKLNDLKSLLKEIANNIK
T1 sequence (Q8BLA8 whole entry): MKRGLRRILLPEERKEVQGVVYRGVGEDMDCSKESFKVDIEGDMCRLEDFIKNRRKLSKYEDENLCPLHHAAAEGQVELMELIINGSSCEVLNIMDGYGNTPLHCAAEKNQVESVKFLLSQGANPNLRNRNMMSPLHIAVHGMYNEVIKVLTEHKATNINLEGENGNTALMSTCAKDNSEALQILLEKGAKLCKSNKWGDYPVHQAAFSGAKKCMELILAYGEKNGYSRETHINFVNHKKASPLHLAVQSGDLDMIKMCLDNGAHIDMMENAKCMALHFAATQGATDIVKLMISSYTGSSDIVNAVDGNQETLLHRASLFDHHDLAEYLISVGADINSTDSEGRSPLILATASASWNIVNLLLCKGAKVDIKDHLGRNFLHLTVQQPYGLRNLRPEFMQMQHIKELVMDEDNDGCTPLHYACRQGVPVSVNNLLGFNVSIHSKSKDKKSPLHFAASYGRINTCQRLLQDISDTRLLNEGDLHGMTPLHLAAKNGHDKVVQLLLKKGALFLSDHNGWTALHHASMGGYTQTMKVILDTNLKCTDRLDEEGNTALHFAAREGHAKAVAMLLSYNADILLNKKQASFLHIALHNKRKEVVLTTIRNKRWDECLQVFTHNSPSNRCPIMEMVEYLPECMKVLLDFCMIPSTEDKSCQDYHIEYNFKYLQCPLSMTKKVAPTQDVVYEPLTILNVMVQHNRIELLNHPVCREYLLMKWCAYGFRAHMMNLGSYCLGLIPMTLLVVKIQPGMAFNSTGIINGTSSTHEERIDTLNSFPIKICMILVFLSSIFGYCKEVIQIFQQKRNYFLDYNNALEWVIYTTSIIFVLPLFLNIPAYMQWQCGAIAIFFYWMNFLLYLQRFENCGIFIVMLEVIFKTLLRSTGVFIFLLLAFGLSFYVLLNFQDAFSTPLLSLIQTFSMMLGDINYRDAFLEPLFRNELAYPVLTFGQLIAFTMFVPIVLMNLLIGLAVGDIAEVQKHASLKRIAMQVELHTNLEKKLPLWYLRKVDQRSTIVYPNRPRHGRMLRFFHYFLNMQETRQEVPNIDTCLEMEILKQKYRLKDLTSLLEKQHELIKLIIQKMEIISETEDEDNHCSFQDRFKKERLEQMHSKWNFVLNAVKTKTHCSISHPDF
T4 sequence (Q9ERZ8 whole entry): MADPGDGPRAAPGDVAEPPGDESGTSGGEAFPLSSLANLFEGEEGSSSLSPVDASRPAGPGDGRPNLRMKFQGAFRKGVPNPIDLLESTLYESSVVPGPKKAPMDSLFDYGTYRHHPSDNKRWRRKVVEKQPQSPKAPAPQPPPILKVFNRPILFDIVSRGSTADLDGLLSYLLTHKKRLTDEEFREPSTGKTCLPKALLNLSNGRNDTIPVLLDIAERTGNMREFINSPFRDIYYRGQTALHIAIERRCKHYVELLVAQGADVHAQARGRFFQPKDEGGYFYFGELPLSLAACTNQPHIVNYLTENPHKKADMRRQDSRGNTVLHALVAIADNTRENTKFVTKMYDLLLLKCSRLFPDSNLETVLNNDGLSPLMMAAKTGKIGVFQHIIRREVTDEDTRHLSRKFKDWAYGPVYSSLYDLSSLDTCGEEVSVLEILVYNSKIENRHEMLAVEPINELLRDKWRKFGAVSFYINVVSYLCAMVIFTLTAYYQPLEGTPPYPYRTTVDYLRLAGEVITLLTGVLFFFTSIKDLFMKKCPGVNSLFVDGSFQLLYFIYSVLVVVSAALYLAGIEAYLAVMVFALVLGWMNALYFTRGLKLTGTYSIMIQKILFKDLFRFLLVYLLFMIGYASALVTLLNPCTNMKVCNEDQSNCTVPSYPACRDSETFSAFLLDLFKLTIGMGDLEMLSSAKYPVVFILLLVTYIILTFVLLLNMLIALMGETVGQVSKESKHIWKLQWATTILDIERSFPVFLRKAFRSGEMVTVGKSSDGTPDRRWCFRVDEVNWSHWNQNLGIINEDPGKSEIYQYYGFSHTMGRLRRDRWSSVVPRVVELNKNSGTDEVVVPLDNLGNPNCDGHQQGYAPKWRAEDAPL

IC50 (mouse TRPA1): 4.5 µM | block of TRPV1 (TRPV1): did not block | block of TRPV3 (TRPV3): did not block | block of TRPV4 (TRPV4): did not block | block of TRPM8 (TRPM8): did not block | behavioral response to the compound alone [2]: did not cause any behavioral response | IC50 (TRPA1 [11]): 3.1 µM | block of cinnamaldehyde-induced TRPA1 currents in excised patches (TRPA1 [12]): suppressed; also recorded: blocked
Compound: CC(=Cc1ccc(Cl)cc1)C(C)=NO [Compound 18, (Z)-4-(4-chlorophynyl)-3-methylbut-3-en-2-oxime]
cinnamaldehyde-induced nociceptive events (time spent licking and flicking hindpaw, 5 min) [1]: suppresses; also recorded: significantly blocked | nociceptive responses to acute heat to the paw [3]: not affected | nociceptive responses to acute pressure to the paw [3]: not affected | CFA-induced mechanical hyperalgesia [4]: reverses; also recorded: relieved | BK-induced mechanical nociceptive behavior [5]: reverses | CFA-induced heat hyperalgesia [6]: not thermal (heat) behaviours; also recorded: did not block | BK-induced heat hyperalgesia [7]: not thermal (heat) behaviours; also recorded: did not block | CFA-induced cold hyperalgesia (flicks, licks, paw raises for 10 min) [8]: reverses cold behaviours; also recorded: robust block | effect on activation or activities of the other thermoTRPs [9]: little or no effect | inhibition of TRPA1 activation or function (TRPA1 [10]): specifically inhibit TRPA1 activation or function
